Values belong to the molecule of their own block, whether it stands above or below them.
How the values were obtained:
[1] = target: T1, Retinoic acid receptor gamma (Homo sapiens, UniProt P13631); type: functional, cell-based
T1 sequence (P13631 whole entry): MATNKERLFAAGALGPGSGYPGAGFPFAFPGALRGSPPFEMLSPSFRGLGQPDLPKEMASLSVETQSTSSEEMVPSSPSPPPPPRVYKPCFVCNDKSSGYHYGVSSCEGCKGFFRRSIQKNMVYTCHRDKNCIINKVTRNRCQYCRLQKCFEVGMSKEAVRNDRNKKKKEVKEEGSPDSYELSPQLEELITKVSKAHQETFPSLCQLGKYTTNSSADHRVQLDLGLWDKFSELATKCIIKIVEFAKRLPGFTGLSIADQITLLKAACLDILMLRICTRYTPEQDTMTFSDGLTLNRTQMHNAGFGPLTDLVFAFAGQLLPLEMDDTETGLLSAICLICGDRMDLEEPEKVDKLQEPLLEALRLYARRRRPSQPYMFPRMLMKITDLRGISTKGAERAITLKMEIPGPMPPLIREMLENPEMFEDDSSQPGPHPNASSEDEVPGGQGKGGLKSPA

[2] = target: Type-2 angiotensin II receptor (Homo sapiens, UniProt P50052); type: functional
[3] = target: T2, Muscarinic acetylcholine receptor M1 (Homo sapiens, UniProt P11229)
T2 sequence (P11229 whole entry): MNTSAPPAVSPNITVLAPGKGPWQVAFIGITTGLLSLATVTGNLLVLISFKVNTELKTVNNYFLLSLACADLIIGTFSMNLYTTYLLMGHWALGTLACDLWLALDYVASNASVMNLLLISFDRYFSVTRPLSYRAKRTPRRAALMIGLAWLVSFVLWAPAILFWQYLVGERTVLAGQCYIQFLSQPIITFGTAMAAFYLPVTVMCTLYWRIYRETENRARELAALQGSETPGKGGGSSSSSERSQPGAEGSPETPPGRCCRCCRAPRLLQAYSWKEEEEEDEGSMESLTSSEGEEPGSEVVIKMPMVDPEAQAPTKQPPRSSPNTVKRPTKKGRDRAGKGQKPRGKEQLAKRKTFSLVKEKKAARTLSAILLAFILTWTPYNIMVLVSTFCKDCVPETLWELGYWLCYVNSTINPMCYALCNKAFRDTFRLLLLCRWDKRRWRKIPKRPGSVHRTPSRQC
Note: assay procedure not described here.

Type-2 angiotensin II receptor, sequence (P50052 whole entry): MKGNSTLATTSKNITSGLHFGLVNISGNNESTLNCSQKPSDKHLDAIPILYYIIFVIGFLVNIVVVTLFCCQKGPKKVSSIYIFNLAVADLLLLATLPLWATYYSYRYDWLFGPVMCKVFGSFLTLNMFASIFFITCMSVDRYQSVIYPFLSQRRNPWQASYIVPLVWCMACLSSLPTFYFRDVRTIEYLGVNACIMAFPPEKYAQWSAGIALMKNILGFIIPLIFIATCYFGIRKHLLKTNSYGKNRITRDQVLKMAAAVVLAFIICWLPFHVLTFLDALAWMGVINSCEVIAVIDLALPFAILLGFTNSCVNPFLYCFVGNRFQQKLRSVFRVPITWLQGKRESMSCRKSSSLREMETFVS

AC50 [1]: > 30 µM
Molecule: CC(C)c1c(C(=O)Nc2ccccc2)c(-c2ccccc2)c(-c2ccc(F)cc2)n1CC[C@@H](O)C[C@@H](O)CC(=O)O [ATORVASTATIN]

Molecule: Cc1c(O)c(=O)ccn1C [DEFERIPRONE]
AC50 [2]: > 100 µM

AC50 [3]: > 30 µM
Molecule: BIVALIRUDIN

— ChEMBL document CHEMBL5291721, “A preclinical secondary pharmacology resource illuminates target-adverse drug reaction associations of marketed drugs” (Nat Commun, 2023)
